Assay results reported in US12419861B2, “Method for preventing and/or treating chronic traumatic encephalopathy-i” (EUSTRALIS PHARMACEUTICALS LIMITED (trading as Pressura …, priority 2013, dated 2025).

Test system: tau phosphorylation
Experiment: Tau phosphorylation after concussive injury in the rat (rodent model of concussion, FIG. 3)
Format: in vivo
Conditions: NK1 receptor antagonist administered at 30 min after induction of injury, assessed at 3 day time point, compared with injured untreated animals
Description: Note that concussive injury in the rat causes extensive tau phosphorylation (C,D) by 3 days after the concussive event compared to non-injured animals (A,B). […] Concussion results in perivascular substance P release Having established that hyperphosphorylated tau accumulates perivascularly following concussive injury, we used an animal model of concussion to investigate whether concussion causes perivascular release of substance P. We developed a rodent model of concussion to replicate the concussive event (Donkin et al., 2004, 7th International Neurotrauma Symposium, pp 75-78, Medimond Publishers, Bologna, Italy) and subsequently determined whether substance P was released after such an event. There was a clear increase in brain perivascular substance P immunoreactivity after the concussive event (FIG. 2). […] Administration of a NK1 receptor antagonist prevents tau phosphorylation Having shown that mechanical injury causes release of substance P after concussive injury, we then investigated whether a substance P NK1 receptor antagonist reduces tau hyperphosphorlation after concussive injury. […] Note that concussive injury in the rat causes extensive tau phosphorylation (C,D) by 3 days after the concussive event compared to non-injured animals (A,B). […] Thus, administration of an NK1 receptor antagonist prevents tau hyperphosphorylation and thus prevents the development of CTE.

CC(=O)N[C@@H](Cc1c[nH]c2ccccc12)C(=O)O [n-acetyl-L-tryptophan, N-acetyl-L-tryptophan]
effect on tau phosphorylation after concussive injury: almost complete inhibition of tau phosphorylation
